In ChEMBL document CHEMBL5465560, “Selectivity Literature for EUbOPEN Chemogenomic Library” (2024):

Tests used:
[1] = molecular target: T1, Cyclin-dependent kinase-like 2 (Homo sapiens) (UniProt Q92772); settings: at 10 µM
T1 sequence (whole entry): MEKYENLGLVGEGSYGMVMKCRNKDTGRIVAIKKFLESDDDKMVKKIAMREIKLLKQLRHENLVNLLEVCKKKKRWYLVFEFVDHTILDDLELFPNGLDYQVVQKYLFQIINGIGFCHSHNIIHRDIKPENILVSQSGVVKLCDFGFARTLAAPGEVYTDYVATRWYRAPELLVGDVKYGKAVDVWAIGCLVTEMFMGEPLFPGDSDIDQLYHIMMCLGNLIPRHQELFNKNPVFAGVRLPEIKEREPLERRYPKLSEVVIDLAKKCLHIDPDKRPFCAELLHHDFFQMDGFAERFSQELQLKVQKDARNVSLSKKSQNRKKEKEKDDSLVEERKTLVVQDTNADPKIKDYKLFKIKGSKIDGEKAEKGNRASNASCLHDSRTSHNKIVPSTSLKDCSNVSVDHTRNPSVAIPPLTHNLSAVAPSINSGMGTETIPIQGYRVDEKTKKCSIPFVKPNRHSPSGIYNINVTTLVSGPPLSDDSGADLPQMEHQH

[2] = molecular target: T2, Aurora kinase A (Homo sapiens) (UniProt O14965); assay: Selectivity interaction (KinaseProfiler screening (Millipore)) EUB0000601a STK6; settings: at 3 µM
T2 sequence (whole entry): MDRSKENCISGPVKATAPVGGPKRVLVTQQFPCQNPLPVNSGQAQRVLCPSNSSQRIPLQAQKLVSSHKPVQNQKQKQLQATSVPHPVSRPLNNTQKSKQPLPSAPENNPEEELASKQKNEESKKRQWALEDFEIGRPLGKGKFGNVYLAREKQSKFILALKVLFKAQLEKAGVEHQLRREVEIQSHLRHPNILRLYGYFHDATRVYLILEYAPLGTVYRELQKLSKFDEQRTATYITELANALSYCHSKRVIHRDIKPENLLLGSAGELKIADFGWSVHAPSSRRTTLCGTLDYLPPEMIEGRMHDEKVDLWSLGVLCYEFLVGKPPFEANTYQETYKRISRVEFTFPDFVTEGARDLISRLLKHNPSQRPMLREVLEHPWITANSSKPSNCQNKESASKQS

[3] = molecular target: Fibroblast growth factor receptor 4 (Homo sapiens, UniProt P22455); assay: Selectivity interaction (KinomeScan (DiscoverX)) EUB0001049a FGFR4; settings: at 1 µM
[4] = Selectivity interaction (Inhibition of ex vivo anti-IgM/IL-4 -induced proximal pAKT formation in rats) EUB0000877a PIK3CD
Cannabinoid receptor 1 = Cannabinoid receptor 1 (Homo sapiens, UniProt P21554); assay: Selectivity interaction (Eurofins CEREP Diversity Profile (receptors and ion channels)) EUB0000279b CNR1; settings: at 10 µM
[5] = molecular target: T3, Activin receptor type-1B (Homo sapiens) (UniProt P36896); assay: Selectivity interaction (KinomeScan (DiscoverX)) EUB0001079a ACVR1B; settings: at 1 µM
T3 sequence (whole entry): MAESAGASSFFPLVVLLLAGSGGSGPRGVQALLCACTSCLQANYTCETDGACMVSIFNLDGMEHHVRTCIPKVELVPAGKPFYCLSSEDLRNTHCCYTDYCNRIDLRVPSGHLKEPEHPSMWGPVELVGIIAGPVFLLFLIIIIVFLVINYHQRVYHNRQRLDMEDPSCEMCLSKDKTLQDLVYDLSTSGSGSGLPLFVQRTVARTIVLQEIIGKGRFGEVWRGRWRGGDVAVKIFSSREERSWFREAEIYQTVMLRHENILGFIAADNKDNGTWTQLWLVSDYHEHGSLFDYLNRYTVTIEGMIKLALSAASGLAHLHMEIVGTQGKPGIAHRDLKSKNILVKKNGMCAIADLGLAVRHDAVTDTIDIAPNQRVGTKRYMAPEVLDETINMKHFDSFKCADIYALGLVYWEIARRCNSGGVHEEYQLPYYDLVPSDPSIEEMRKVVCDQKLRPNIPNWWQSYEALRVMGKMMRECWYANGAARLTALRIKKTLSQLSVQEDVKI

[6] = molecular target: Microtubule-associated serine/threonine-protein kinase 1 (Homo sapiens) (UniProt Q9Y2H9); assay: Selectivity interaction (KinomeScan (DiscoverX)) EUB0001079a MAST1; settings: at 1 µM
[7] = tested on: Mast/stem cell growth factor receptor Kit (Homo sapiens), P10721 [A829P]; assay: (§1) Selectivity interaction (ProQinase) EUB0000171b KIT
[8] = tested on: Mast/stem cell growth factor receptor Kit (Homo sapiens), P10721 [V559D,V654A]; assay: as §1
[9] = tested on: Mast/stem cell growth factor receptor Kit (Homo sapiens), P10721 [V654A]; assay: as §1
[10] = tested on: Mast/stem cell growth factor receptor Kit (Homo sapiens), P10721 [V559D,T670I]; assay: as §1
[11] = tested on: Mast/stem cell growth factor receptor Kit (Homo sapiens), P10721 [D816H]; assay: as §1
[12] = tested on: Mast/stem cell growth factor receptor Kit (Homo sapiens), P10721 [T670I]; assay: as §1
[13] = molecular target: Mast/stem cell growth factor receptor Kit (Homo sapiens, UniProt P10721); assay: as §1
[14] = tested on: Mast/stem cell growth factor receptor Kit (Homo sapiens), P10721 [V559D]; assay: as §1
[15] = tested on: Mast/stem cell growth factor receptor Kit (Homo sapiens), P10721 [D816V]; assay: as §1
[16] = tested on: Mast/stem cell growth factor receptor Kit (Homo sapiens), P10721 [V560G]; assay: as §1
[17] = molecular target: Angiopoietin-1 receptor (Homo sapiens) (UniProt Q02763); assay: Selectivity interaction (KinomeScan (DiscoverX)) EUB0000045b TEK
[18] = tested on: Epidermal growth factor receptor (Homo sapiens), P00533 [UNDEFINED MUTATION]; assay: Selectivity interaction (KinomeScan (DiscoverX)) EUB0000045b EGFR; settings: at 1 µM
[19] = molecular target: Cyclin-dependent kinase 7 (Homo sapiens, UniProt P50613); assay: Selectivity interaction (KinomeScan (DiscoverX)) EUB0000655a CDK7; settings: at 10 µM
[20] = molecular target: Mitogen-activated protein kinase 9 (Homo sapiens, UniProt P45984); assay: Selectivity interaction (Kinase panel (DSF assay)) EUB0001559a MAPK9
[21] = molecular target: Serine/threonine-protein kinase Nek7 (Homo sapiens) (UniProt Q8TDX7); assay: Selectivity interaction (Kinase panel (KiNativ target engagement assay in Jurkat cells)) EUB0001635a NEK7; format: cell-based; settings: Selectivity number of off-targets 0.0, Selectivity number of targets 233.0, Source Knowledge https://www.sciencedirect.com/science/article/pii/S2451945619300674?via%3Dihub, at 1 µM

Mast/stem cell growth factor receptor Kit (Homo sapiens), P10721 [V654A], sequence (P10721 whole entry V654A): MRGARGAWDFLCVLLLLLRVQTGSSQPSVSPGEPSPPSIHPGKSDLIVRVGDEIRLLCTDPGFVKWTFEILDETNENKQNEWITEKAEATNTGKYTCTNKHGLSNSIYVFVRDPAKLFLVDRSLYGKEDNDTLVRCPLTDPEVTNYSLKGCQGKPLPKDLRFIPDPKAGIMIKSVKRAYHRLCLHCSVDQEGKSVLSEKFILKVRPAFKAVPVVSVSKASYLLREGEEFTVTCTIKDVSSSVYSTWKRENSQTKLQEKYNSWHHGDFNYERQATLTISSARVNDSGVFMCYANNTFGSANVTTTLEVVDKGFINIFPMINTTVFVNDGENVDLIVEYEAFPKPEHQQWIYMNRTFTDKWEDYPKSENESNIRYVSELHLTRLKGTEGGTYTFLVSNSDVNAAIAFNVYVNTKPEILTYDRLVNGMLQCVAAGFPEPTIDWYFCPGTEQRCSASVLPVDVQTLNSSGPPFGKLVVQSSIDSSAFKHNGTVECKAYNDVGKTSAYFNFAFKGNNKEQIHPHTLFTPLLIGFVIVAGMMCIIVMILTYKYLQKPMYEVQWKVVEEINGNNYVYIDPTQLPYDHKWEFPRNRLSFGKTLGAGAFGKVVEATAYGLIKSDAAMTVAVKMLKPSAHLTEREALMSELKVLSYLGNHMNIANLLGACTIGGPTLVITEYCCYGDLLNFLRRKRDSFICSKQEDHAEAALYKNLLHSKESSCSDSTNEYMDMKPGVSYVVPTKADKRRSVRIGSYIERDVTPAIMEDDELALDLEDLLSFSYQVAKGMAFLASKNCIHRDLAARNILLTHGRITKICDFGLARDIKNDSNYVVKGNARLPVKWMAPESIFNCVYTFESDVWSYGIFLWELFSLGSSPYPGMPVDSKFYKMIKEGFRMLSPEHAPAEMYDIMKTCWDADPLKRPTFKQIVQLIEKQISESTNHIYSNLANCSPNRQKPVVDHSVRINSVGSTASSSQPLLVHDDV
Angiopoietin-1 receptor (Homo sapiens), sequence (Q02763 whole entry): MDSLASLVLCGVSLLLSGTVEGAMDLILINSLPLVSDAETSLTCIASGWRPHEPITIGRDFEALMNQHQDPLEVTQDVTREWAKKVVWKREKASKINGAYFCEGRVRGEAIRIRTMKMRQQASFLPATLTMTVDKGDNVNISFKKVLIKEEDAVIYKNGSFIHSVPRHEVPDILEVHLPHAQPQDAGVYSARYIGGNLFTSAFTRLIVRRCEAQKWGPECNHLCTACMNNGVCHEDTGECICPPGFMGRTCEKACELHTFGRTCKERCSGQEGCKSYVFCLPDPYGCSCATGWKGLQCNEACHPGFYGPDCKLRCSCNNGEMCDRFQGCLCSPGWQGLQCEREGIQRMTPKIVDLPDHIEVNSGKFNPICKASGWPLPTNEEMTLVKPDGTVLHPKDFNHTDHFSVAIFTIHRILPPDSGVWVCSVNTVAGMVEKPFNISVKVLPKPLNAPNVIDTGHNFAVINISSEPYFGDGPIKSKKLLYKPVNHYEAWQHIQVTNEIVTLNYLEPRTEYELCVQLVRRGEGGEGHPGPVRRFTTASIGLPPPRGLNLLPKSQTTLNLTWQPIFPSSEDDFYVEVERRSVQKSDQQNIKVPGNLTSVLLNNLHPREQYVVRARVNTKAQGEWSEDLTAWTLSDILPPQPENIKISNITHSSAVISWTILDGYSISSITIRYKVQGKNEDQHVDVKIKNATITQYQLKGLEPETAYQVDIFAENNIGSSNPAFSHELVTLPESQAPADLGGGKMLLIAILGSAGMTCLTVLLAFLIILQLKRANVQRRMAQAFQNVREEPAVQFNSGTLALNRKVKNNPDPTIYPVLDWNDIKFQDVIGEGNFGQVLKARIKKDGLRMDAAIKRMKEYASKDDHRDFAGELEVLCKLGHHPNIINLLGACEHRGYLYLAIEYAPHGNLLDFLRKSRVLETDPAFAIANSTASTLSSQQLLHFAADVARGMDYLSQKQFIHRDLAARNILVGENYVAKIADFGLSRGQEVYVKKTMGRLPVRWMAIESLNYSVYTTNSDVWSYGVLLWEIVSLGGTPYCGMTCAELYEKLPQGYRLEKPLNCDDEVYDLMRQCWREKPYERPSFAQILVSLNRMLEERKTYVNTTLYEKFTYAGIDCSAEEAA
Mast/stem cell growth factor receptor Kit (Homo sapiens), P10721 [V559D], sequence (P10721 whole entry V559D): as the sequence (P10721 whole entry V654A) above, with V559D, A654V counted along it
Mast/stem cell growth factor receptor Kit (Homo sapiens), P10721 [D816H], sequence (P10721 whole entry D816H): as the sequence (P10721 whole entry V654A) above, with A654V, D816H counted along it
Mast/stem cell growth factor receptor Kit (Homo sapiens), P10721 [V560G], sequence (P10721 whole entry V560G): as the sequence (P10721 whole entry V654A) above, with V560G, A654V counted along it

For `Cc1cc([C@@H](C)Nc2ccccc2C(=O)O)c2nc(N3CCOCC3)cc(=O)n2c1` [AZD-6482], the % of control [1] was 91%.

Work on `CCc1cc(Nc2nccc(-c3c(-c4ccc(OC)c(C(=O)Nc5c(F)cccc5F)c4)nc4ccccn34)n2)c(OC)cc1N1CCC(N2CCN(S(C)(=O)=O)CC2)CC1` yielded a % of inhibition [2] of 76%.

Work on `COc1cc(Nc2nc(C)cc(-c3cnn4nc(OC)ccc34)n2)cc(C(F)(F)F)c1` yielded a % of control [3] of 100%.

For `CCC(=O)N1CC[C@H](Nc2ncnc3c2CN(c2cnc(OC)c(C(F)(F)F)c2)CC3)C1` [LENIOLISIB], the EC50 [4] was 83 nM.

Work on `CC(=O)c1cc(-c2ccccc2OCC2CC2)c2ncccn12` yielded a % of control (Cannabinoid receptor 1) of 116%.

Work on `Nc1cnc(N2CCc3cc(S(=O)(=O)Nc4c(F)cc(Cl)cc4F)cc(N4CCCC4=O)c32)nc1` [TP-020n] yielded a % of control [5] of 96% and a % of control [6] of 97%.

Work on `C=CC(=O)Nc1cccc(C(=O)Nc2ccc(Nc3cc(-c4[nH]c(SC)nc4C)ccn3)cc2)c1` yielded a % of control ([7]; at 1 µM) of 68%, a % of control ([7]; at 5 µM) of 75% and a % of control ([8]; at 1 µM) of 94%. The % of control ([8]; at 5 µM) was 85%, the % of control ([9]; at 1 µM) was 103% and the % of control ([9]; at 5 µM) was 80%. It also gave a % of control ([10]; at 1 µM) of 96%, a % of control ([10]; at 5 µM) of 77% and a % of control ([11]; at 1 µM) of 91%. For the same compound, the % of control ([11]; at 5 µM) was 66%, the % of control ([12]; at 1 µM) was 107% and the % of control ([12]; at 5 µM) was 98%. It also gave a % of control ([13]; at 1 µM) of 98%, a % of control ([13]; at 5 µM) of 101% and a % of control ([14]; at 1 µM) of 102%. It also gave a % of control ([14]; at 5 µM) of 94%, a % of control ([15]; at 1 µM) of 87% and a % of control ([15]; at 5 µM) of 55%. For the same compound, the % of control ([16]; at 1 µM) was 95% and the % of control ([16]; at 5 µM) was 67%.

`C=CC(=O)Nc1cc(-n2c(=O)ccc3cnc4ccc(-c5ccc(NS(C)(=O)=O)cc5)cc4c32)ccc1C` showed a % of control ([17]; at 1 µM) of 89%, a % of control ([17]; at 10 µM) of 99% and a % of control [18] of 89%.

In the case of `CN(C)CCOc1ccc(-c2nc(-c3ccncc3)c(-c3ccc4c(c3)CC/C4=N\O)[nH]2)cc1`, the % of control [19] is reported as 93%.

Compound `CN(C(=O)c1cnn2cccnc12)c1cc2c(cc1N1CCOCC1)C(=O)N(C[C@@H](F)C(C)(C)O)C2` has a dTM [20] of 0.5 K.

In the case of `C=CC(=O)Nc1ccc(C(=O)Nc2[nH]nc3c2CN(C(=O)N[C@H](CN(C)C)c2ccccc2)C3(C)C)cc1`, the % of engagement [21] is reported as -12.5%.
